The subject of one assay is rats with SNI. As to the kind of experiment: Mechanical allodynia (von Frey test) after spared nerve injury. The class given is in vivo, male Wistar rats. The protocol:
Animals. The experiments were performed on male Wistar rats weighing 250 g (six weeks). All animals were housed in standardized animal facilities under a 12 h light/dark cycle (lights on at 7 AM) with ad libitum access to food and water. All surgeries and experimental procedures were performed during the light cycle. Experimental protocols were approved by the Animal Ethics Committee of the local institutional committee for animal use and care (McGill University, Qc, Canada). These protocols follow ethical guidelines for investigation of experimental pain in conscious animals of the IASP, the Canadian Institute of Health Research guidelines for animal care and scientific use.
Spared nerve injury (SNI). SNI was performed according to the method of Decosterd and Woolf^35. Rats were deeply anaesthetized with isofluorane (5%), anaesthesia was confirmed by the absence of a nociceptive reflex reaction to a paw pinch. The sciatic nerve was exposed at mid-thigh level distal to the trifurcation and freed of connective tissue; the three peripheral branches (sural, common peroneal, and tibial nerves) of the sciatic nerve were exposed without stretching nerve structures. Both tibial and common peroneal nerves were ligated and transected together. Carprofen (5 mg/kg) was administrated subcutaneously pre-surgery as well as three days every 24 hours post-surgery as analgesic. After SNI, each rat was housed in its home cage for 15 days until the neuropathy is developed.
Mechanical allodynia. On day 15 after SNI, mechanical allodynia was assessed via von Frey test^38. Rats were placed in a test chamber, and they were allowed to acclimate for 60 minutes. Tactile allodynia was determined by measuring paw withdrawal thresholds in response to mid-plantar hind paw stimuli with Calibrated von Frey filaments^36. These filaments are of a logarithmically incremental stiffness corresponding to an applied force ranging from 0.4 to 15 g. Every filament was applied during 10 seconds in the hind paw to measure the withdrawal threshold. The 2.0 g force filament was applied first; in the presence of a response, the next smaller filament was applied. In the absence of a response, the next higher filament was applied. After the first change in response, the test continued until six responses were collected. The paw withdrawal threshold was then converted to the cutaneous nociceptive threshold by using the “up-down” method^39. The stimulus intensity (filament stiffness) required to produce a response in 50% of the applications for each animal was defined as 50% withdrawal threshold (expressed in g). The 50% withdrawal threshold was determined according to the following equation: 50% Threshold (g)=(10^ [Xf+kδ])/10,000. Where Xf is the value of the last von Frey filament used (in logarithmic units), k is the correction factor based on the response patterns of a calibration table and the tabulated value based on the pattern of positive and negative responses, and δ indicates the average differences between stimuli in logarithmic units^38,39. In non-lesioned animals (naïve) a value 11.98-15 g was considered normal, while the presence of allodynia was considered when the 50% withdrawal threshold of the limb is less than 4 g. All nerve-ligated rats were verified to be allodynic before the experiments. Rats without allodynia were excluded.

A further assay deals with neuropathic rats. Briefly: Sleep fragmentation analysis (Sleep Fragmentation Index). The class given is in vivo, male Wistar rats. The following applies: NP rats; CBD 20 mg/kg i.p.; vs NP+VEH. How it is done: Sleep fragmentation analysis. Sleep Fragmentation Index (SFI) is determinant of excessive daytime sleepiness as it is characterized by repetitive short interruptions of sleep by periods of wakefulness. […] In this study, SFI is calculated as the total number of wakefulness episodes in 24 h divided by the total sleep time in hours during 24 h (REM+NREM).

A further assay deals with naïve animals. The following applies: cited from earlier work.
The mark [1] stands for this setting: naïve animals, acute systemic 20 mg/kg.

“Also recorded” adds a separate entry of the source.

As for `C=C(C)[C@@H]1CCC(C)=C[C@H]1c1c(O)cc(CCCCC)cc1O` [CBD, 2-[(1R,6R)-3-methyl-6-prop-1-en-2-ylcyclohex-2-en-1-yl]-5-pentylbenzene-1,3-diol], the “AUC of the antiallodynic effect” value in the assay on rats with SNI (10 mg/kg vs 20 mg/kg) was “not statistically different”. For the same molecule, the “AUC of the antiallodynic effect” value in the assay with rats with SNI (20 mg/kg group vs CBD 5 mg/kg (p<0.001) and vs vehicle (p<0.001)) is reported as “significantly higher”. Besides, the antiallodynic effect entry in the assay with rats with SNI (SNI rats, 5 mg/kg i.p.) is given as “did not show any antiallodynic effect”. The “reversal of mechanical allodynia” value in the assay on rats with SNI (SNI rats, 10 mg/kg i.p., between 2 h and 4.5 h (p<0.05)) was “able to reverse mechanical allodynia”. The “reversal of mechanical allodynia” value with rats with SNI (SNI rats, 20 mg/kg i.p., between 1 h and 5 h (p<0.05)) is “able to reverse mechanical allodynia”. In addition, in the assay on rats with SNI (SNI rats, CBD 5, 10 and 20 mg/kg intraperitoneally, 0.5-7.5 hours, vs vehicle), the “paw withdrawal threshold / mechanical allodynia, dose dependence” value is given as “increasing the paw withdrawal threshold in a dose-dependent manner; also recorded: reduces mechanical allodynia in a dose-dependent manner; also recorded: reduces neuropathic pain”. For the same molecule, the “duration of antiallodynic effects post-administration” value in the assay on rats with SNI (SNI rats, CBD i.p.) is listed as “up to 4 hours”. In addition, the “sleep fragmentation (sleep fragmentation index, SFI)” value in the assay with neuropathic rats is on record as “decrease of the sleep fragment index (SFI) to normal levels; also recorded: attenuates the sleep fragmentation”. Moreover, in the assay on naïve animals (setting [1]), the “sleep duration and sleep parameters” value is listed as “no significant effect”; the “slow-wave sleep (SWS) latency” value is given as “reduced slow-wave sleep (SWS) latency”. Also, in the assay on naïve animals (single doses of 40 mg/kg), the REM sleep entry was “without affecting REM sleep”, the SWS result is on record as “increased SWS” and the SWS latency result is listed as “decreased SWS latency”.

These data come from US20230172874A1, “USE OF CANNABIDIOL FOR THE TREATMENT OF INSOMNIA ASSOCIATED TO PAIN” (priority 2021, published 2023).
